These results are taken from patent publication US10570129B2 (Zoetis Services LLC, priority 2015, dated 2020).

The subject of one assay is D. immitis microfilariae. The assay is described as follows: Dirofilaria immitis, microfilariae (DiMF) in vitro motility assay. Particulars: Dirofilaria immitis, 72 h, read-out: DiMF minimally effective dose (MEC). The format is cell-based.
The next assay concerns Haemonchus contortus L3. Description: microbe, parasite or virus in culture. Particulars: Haemonchus contortus, 96 h, read-out: HcL3 Minimal Effective Concentration (MEC). In kind it is cell-based.

A value given as a limit tells only on which side of the number the result lay.

Regarding `O=C(NCc1ccnc(Cl)c1)n1c2c(c3ccc(Cl)cc31)CN(C/C=C/c1ccc(OC(F)(F)F)cc1)CC2` [Example 221, (E)-7-chloro-N-((2-chloropyridin-4-yl)methyl)-2-(3-(4-(trifluoromethoxy)-phenyl)allyl)-1,2,3,4-tetrahydro-5H-pyrido[4,3-b]indole-5-carboxamide], the values for the minimal effective concentration with D. immitis microfilariae and with Haemonchus contortus L3 were 3.3 µM and over 100 µM, respectively.
For `N#Cc1ccc2c(c1)c1c(n2C(=O)NCc2ccnc(O)c2)CCN(C/C=C/c2cc(Cl)c(F)c(Cl)c2)C1` [Example 452, (E)-8-cyano-2-(3-(3,5-dichloro-4-fluorophenyl)allyl)-N-((2-hydroxypyridin-4-yl)methyl)-1,2,3,4-tetrahydro-5H-pyrido[4,3-b]indole-5-carboxamide] the same measures were over 100 µM and over 100 µM.
As to `O=C(NCc1ccnc(Cl)c1)n1c2c(c3ccc(Cl)cc31)CN(C/C=C/c1ccc(F)cc1F)CC2` [Example 209, (E)-7-chloro-N-((2-chloropyridin-4-yl)methyl)-2-(3-(2,4-difluorophenyl)-allyl)-1,2,3,4-tetrahydro-5H-pyrido[4,3-b]indole-5-carboxamide], the minimal effective concentration in the assay with D. immitis microfilariae was 33 µM; in the assay on Haemonchus contortus L3, over 100 µM.
On to `O=C(NCc1ccnc(F)c1)n1c2c(c3ccc(OC(F)(F)F)cc31)CN(C/C=C/c1ccc(F)c(F)c1)CC2` [Example 376, (E)-2-(3-(3,4-difluorophenyl)allyl)-N-((2-fluoropyridin-4-yl)methyl)-7-(trifluoromethoxy)-1,2,3,4-tetrahydro-5H-pyrido[4,3-b]indole-5-carboxamide], for which the minimal effective concentration in the assay with D. immitis microfilariae came out at 10 µM; in the assay with Haemonchus contortus L3 it was 0.5 µM.
For `N#Cc1ccc(/C=C/CN2CCc3c(c4cc(C(F)(F)F)ccc4n3C(=O)NCc3ccnc(Cl)c3)C2)cc1` [Example 331, (E)-N-((2-chloropyridin-4-yl)methyl)-2-(3-(4-cyanophenyl)allyl)-8-(trifluoromethyl)-1,2,3,4-tetrahydro-5H-pyrido[4,3-b]indole-5-carboxamide], the minimal effective concentration with D. immitis microfilariae was determined as 24 µM; in the assay on Haemonchus contortus L3, 0.7 µM.
For `O=C(NCc1ccnc(Cl)c1)n1c2c(c3cc(Cl)ccc31)CN(C/C=C/c1ccc(Cl)cc1F)CC2` [Example 233, (E)-8-chloro-2-(3-(4-chloro-2-fluorophenyl)allyl)-N-((2-chloropyridin-4-yl)methyl)-1,2,3,4-tetrahydro-5H-pyrido[4,3-b]indole-5-carboxamide] the same measures were 1.8 µM and 0.01 µM.
On to `O=C(NCc1ccnc(Cl)c1)n1c2c(c3ccc(OC(F)(F)F)cc31)CN(Cc1cc3ccc(Cl)cc3cn1)CC2` [Example 365, 2-((7-chloroisoquinolin-3-yl)methyl)-N-((2-chloropyridin-4-yl)methyl)-7-(trifluoromethoxy)-1,2,3,4-tetrahydro-5H-pyrido[4,3-b]indole-5-carboxamide], for which the minimal effective concentration with D. immitis microfilariae was 4.4 µM; in the assay with Haemonchus contortus L3 it was over 100 µM.
For the compound `O=C(NCc1ccnc(Cl)c1)n1c2c(c3cccc(Cl)c31)CN(C/C=C/c1ccc(F)cc1)CC2` [Example 269, (E)-6-chloro-N-((2-chloropyridin-4-yl)methyl)-2-(3-(4-fluorophenyl)allyl)-1,2,3,4-tetrahydro-5H-pyrido[4,3-b]indole-5-carboxamide], the minimal effective concentration was 3.3 µM in the assay with D. immitis microfilariae and over 100 µM with Haemonchus contortus L3.
The matching figures for `O=C(NCc1cnc(Cl)s1)n1c2c(c3cccc(Cl)c31)CN(C/C=C/c1ccc(Cl)cc1)CC2` [Example 273, (E)-6-chloro-2-(3-(4-chlorophenyl)allyl)-N-((2-chlorothiazol-5-yl)methyl)-1,2,3,4-tetrahydro-5H-pyrido[4,3-b]indole-5-carboxamide]: 18.2 µM and over 100 µM.
For the compound `N#Cc1ccc2c(c1)c1c(n2C(=O)NCc2ccnc(Cl)c2)CCN(C/C=C/c2ccc(Cl)cc2)C1` [Example 92, (E)-2-(3-(4-chlorophenyl)allyl)-N-((2-chloropyridin-4-yl)methyl)-8-cyano-1,2,3,4-tetrahydro-5H-pyrido[4,3-b]indole-5-carboxamide], the minimal effective concentration with D. immitis microfilariae was found to be 3.3 µM; in the assay with Haemonchus contortus L3 it was 0.3 µM.
As for `Cc1ccc2c(c1)c1c(n2C(=O)NCc2ccnc(Cl)c2)CCN(C/C=C/c2ccc(Cl)cc2)C1` [Example 431, (E)-2-(3-(4-chlorophenyl)allyl)-N-((2-chloropyridin-4-yl)methyl)-8-methyl-1,2,3,4-tetrahydro-5H-pyrido[4,3-b]indole-5-carboxamide], the minimal effective concentration with D. immitis microfilariae stood at 3.3 µM; in the assay with Haemonchus contortus L3, 1 µM.
For `O=C(NCc1ccnc(Cl)c1)n1c2c(c3cc(C(F)(F)F)ccc31)CN(C/C=C/c1ccc(F)c(Cl)c1)CC2` [Example 413, (E)-2-(3-(3-chloro-4-fluorophenyl)allyl)-N-((2-chloropyridin-4-yl)methyl)-8-(trifluoromethyl)-1,2,3,4-tetrahydro-5H-pyrido[4,3-b]indole-5-carboxamide] the same measures were over 100 µM and 1.8 µM.
The matching figures for `O=C(NCc1ccnc(Cl)c1)n1c2c(c3cc(Cl)c(Cl)cc31)CN(C/C=C/c1ccc(F)c(Cl)c1)CC2` [Example 277, (E)-7,8-dichloro-2-(3-(3-chloro-4-fluorophenyl)allyl)-N-((2-chloropyridin-4-yl)methyl)-1,2,3,4-tetrahydro-5H-pyrido[4,3-b]indole-5-carboxamide]: over 100 µM and 1 µM.
For `NC(=O)c1ccc2c3c(n(C(=O)NCc4ccnc(Cl)c4)c2c1)CCN(C/C=C/c1ccc(Cl)cc1)C3` [Example 464, (E)-2-(3-(4-chlorophenyl)allyl)-N^5-((2-chloropyridin-4-yl)methyl)-1,2,3,4-tetrahydro-5H-pyrido[4,3-b]indole-5,7-dicarboxamide] the same measures were 7.6 µM and 3.3 µM.
As for `N#Cc1cc2c3c(n(C(=O)NCc4ccnc(Cl)c4)c2cc1F)CCN(C/C=C/c1ccc(Cl)cc1)C3` [Example 178, (E)-2-(3-(4-chlorophenyl)allyl)-N-((2-chloropyridin-4-yl)methyl)-8-cyano-7-fluoro-1,2,3,4-tetrahydro-5H-pyrido[4,3-b]indole-5-carboxamide], the figures for the minimal effective concentration in the assay with D. immitis microfilariae and in the assay on Haemonchus contortus L3 were over 100 µM and 0.3 µM, respectively.
For `N#Cc1cc2c3c(n(C(=O)NCc4ccnc(Cl)c4)c2cc1OC(F)(F)F)CCN(C/C=C/c1ccc(Cl)cc1)C3` [Example 503, (E)-2-(3-(4-chlorophenyl)allyl)-N-((2-chloropyridin-4-yl)methyl)-8-cyano-7-(trifluoromethoxy)-1,2,3,4-tetrahydro-5H-pyrido[4,3-b]indole-5-carboxamide] the same measures were 3.3 µM and 33 µM.
Turning to `N#Cc1ccc2c3c(n(C(=O)NCc4ccnc(Cl)c4)c2c1)CCN(C/C=C/c1ccc(Br)c(F)c1F)C3` [Example 14, (E)-2-(3-(4-bromo-2,3-difluorophenyl)allyl)-N-((2-chloropyridin-4-yl)methyl)-7-cyano-1,2,3,4-tetrahydro-5H-pyrido[4,3-b]indole-5-carboxamide], the figures for the minimal effective concentration in the assay on D. immitis microfilariae and in the assay on Haemonchus contortus L3 were over 100 µM and 0.5 µM, respectively.
In the case of `O=C(NCc1ccnc(Cl)c1)n1c2c(c3cc4c(cc31)COC4)CN(C/C=C/c1ccc(C(F)(F)F)cn1)CC2` [Example 474, (E)-N-((2-chloropyridin-4-yl)methyl)-8-(3-(5-(trifluoromethyl)pyridin-2-yl)allyl)-1,3,6,7,8,9-hexahydro-5H-furo[3,4-f]pyrido[4,3-b]indole-5-carboxamide], the minimal effective concentration worked out at 10 µM with D. immitis microfilariae and 0.2 µM in the assay on Haemonchus contortus L3.
The matching figures for `O=C(NCc1ccnc(F)c1)n1c2c(c3cc(F)c(Cl)cc31)CN(C/C=C/c1ccc(F)c(Cl)c1)CC2` [Example 313, (E)-7-chloro-2-(3-(3-chloro-4-fluorophenyl)allyl)-8-fluoro-N-((2-fluoro-pyridin-4-yl)methyl)-1,2,3,4-tetrahydro-5H-pyrido[4,3-b]indole-5-carboxamide]: 3.3 µM and 0.5 µM.
As to `N#Cc1ccc2c(c1)c1c(n2C(=O)NCc2ccnc(F)c2)CCN(C/C=C/c2ccc(Cl)cc2F)C1` [Example 104, (E)-2-(3-(4-chloro-2-fluorophenyl)allyl)-8-cyano-N-((2-fluoropyridin-4-yl)methyl)-1,2,3,4-tetrahydro-5H-pyrido[4,3-b]indole-5-carboxamide], the minimal effective concentration was 3.2 µM with D. immitis microfilariae and 0.1 µM with Haemonchus contortus L3.
Consider `O=C(NCc1ccnc(Cl)c1)n1c2c(c3cc(OC(F)(F)F)ccc31)CN(C/C=C/c1ccc(Cl)c(Cl)c1)CC2` [Example 392, (E)-N-((2-chloropyridin-4-yl)methyl)-2-(3-(3,4-dichlorophenyl)allyl)-8-(trifluoromethoxy)-1,2,3,4-tetrahydro-5H-pyrido[4,3-b]indole-5-carboxamide], for which the results for the minimal effective concentration with D. immitis microfilariae and in the assay with Haemonchus contortus L3 were 22.2 µM and 1 µM, respectively.
Consider `N#Cc1ccc2c(c1)c1c(n2C(=O)NCc2ccnc(Cl)c2)CCN(C/C=C/c2ccc(F)cc2Br)C1` [Example 94, (E)-2-(3-(2-bromo-4-fluorophenyl)allyl)-N-((2-chloropyridin-4-yl)methyl)-8-cyano-1,2,3,4-tetrahydro-5H-pyrido[4,3-b]indole-5-carboxamide], for which the minimal effective concentration was over 100 µM in the assay on D. immitis microfilariae and 0.1 µM in the assay on Haemonchus contortus L3.
Regarding `O=C(NCc1ccnc(Cl)c1)n1c2c(c3ccc(Cl)cc31)CN(C/C=C/c1ccc(F)c(Cl)c1)CC2` [Example 210, (E)-7-chloro-2-(3-(3-chloro-4-fluorophenyl)allyl)-N-((2-chloropyridin-4-yl)methyl)-1,2,3,4-tetrahydro-5H-pyrido[4,3-b]indole-5-carboxamide], the minimal effective concentration with D. immitis microfilariae turned out to be 10 µM; with Haemonchus contortus L3, 3.3 µM.
